Data as given in patent publication US9790174B2, “Kinase inhibitors” (Respivert Limited, priority 2013, dated 2017).

Tests used:
[1] = system: endotoxin-induced uveitis; test: Endotoxin-induced uveitis in rats; type: in vivo, Lewis rats; details: rats treated with intravitreal endotoxin LPS
Method: Male, Lewis rats (6-8 weeks old, Charles River UK Limited) are housed in cages of 3 at 19-21° C. with a 12 h light/dark cycle (07:00/19:00) and fed a standard diet of rodent chow and water ad libitum. Non-fasted rats are weighed, individually identified on the tail with a permanent marker, and receive a single intravitreal administration into the right vitreous humor (5 μL dose volume) of 100 ng/animal of LPS (Escherichia coli 0111:B4 prepared in PBS, Sigma Aldrich, UK) using a 32-gauge needle. Untreated rats are injected with PBS. […] Following euthanasia, the right eye of each animal is enucleated and dissected into front (anterior) and back (posterior) sections around the lens. Each section is weighed and homogenised in 500 μL of sterile phosphate buffered saline followed by 20 minutes centrifugation at 12000 rpm at 4° C.

[2] = system: TNBS-induced colitis; test: TNBS-induced colitis in mice; type: in vivo, BDF1 mice; details: conducted over 2 days; oral
Method: Non-fasted, 10-12 week old, male BDF1 mice are dosed by oral gavage twice daily with either vehicle (5 mL/kg), reference item (Budesonide 2.5 mg/kg) or test compound (1 or 5 mg/kg) one day before (Day −1) stimulation of the inflammatory response by treatment with 2,4,6-trinitrobenzenesulphonic acid (TNBS) (15 mg/mL in 50% ethanol/50% saline). On Day 0 of the study TNBS (200 μL) is administered intra-colonically via a plastic catheter with BID dosing of the vehicle, reference or test compound continuing for 2 or 4 days. During the study, animals are weighed every day and stool observations are made and recorded as a score, based on stool consistency. At the time of sacrifice on Day 2 (or Day 4), the large intestine is removed and the length and weight recorded. Sections of the colon are taken for histopathology scoring to determine disease severity.

[3] = biological target: B-Raf (Homo sapiens (Human), UniProt P15056); test: KINOMEscan binding of kinase to standard ligand
Sequence of B-Raf (P15056 whole entry): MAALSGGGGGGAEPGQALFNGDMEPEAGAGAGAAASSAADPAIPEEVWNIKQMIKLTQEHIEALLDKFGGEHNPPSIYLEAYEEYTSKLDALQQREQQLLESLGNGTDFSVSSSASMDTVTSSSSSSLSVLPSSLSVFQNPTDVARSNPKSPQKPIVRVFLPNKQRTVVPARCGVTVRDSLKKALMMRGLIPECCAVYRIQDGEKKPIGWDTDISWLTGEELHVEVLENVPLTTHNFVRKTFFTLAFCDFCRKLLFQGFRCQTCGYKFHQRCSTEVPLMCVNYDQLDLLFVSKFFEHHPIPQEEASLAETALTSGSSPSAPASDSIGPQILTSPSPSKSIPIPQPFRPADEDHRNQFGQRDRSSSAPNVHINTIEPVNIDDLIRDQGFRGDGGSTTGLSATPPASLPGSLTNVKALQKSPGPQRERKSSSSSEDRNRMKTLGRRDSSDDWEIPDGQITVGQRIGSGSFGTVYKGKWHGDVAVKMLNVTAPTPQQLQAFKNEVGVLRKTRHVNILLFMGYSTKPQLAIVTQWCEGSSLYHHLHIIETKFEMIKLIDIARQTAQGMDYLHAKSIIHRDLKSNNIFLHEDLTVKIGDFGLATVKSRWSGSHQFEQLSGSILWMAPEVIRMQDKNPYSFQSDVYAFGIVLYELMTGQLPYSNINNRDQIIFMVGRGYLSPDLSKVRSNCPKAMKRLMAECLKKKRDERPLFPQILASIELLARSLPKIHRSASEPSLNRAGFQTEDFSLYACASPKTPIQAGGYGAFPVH
Method: (§1) Kinase enzyme binding activities of compounds disclosed herein may be determined using a proprietary assay which measures active site-directed competition binding to an immobilized ligand (Fabian, M. A. et al., Nature Biotechnol., 2005, 23:329-336). These assays may be conducted by DiscoverX (formerly Ambit; San Diego, Calif.). The percentage inhibition produced by incubation with a test compound may be calculated relative to the non-inhibited control.

[4] = biological target: B-Raf (V600E) (Homo sapiens (Human), UniProt P15056, V600E); test: KINOMEscan binding of kinase to standard ligand
Sequence of B-Raf (V600E) (P15056 whole entry V600E): as the sequence (P15056 whole entry) above, with V600E counted along it
Method: as §1

[5] = system: non-mutant kinases; test: KinomeScan selectivity scores; type: binding; details: for number of individual kinase hits S(1): % Ctrl <1; for number of individual kinase hits S(10): % Ctrl <10; for number of individual kinase hits S(35): % Ctrl <35
Method: These assays may be conducted by DiscoverX (formerly Ambit; San Diego, Calif.). The percentage inhibition produced by incubation with a test compound may be calculated relative to the non-inhibited control.

[6] = system: adoptive transfer colitis; test: Adoptive transfer in mice; type: in vivo, SCID mice; details: adoptive transfer
Method: On Study day 0, female Balb/C mice are terminated and spleens obtained for CD45RB^high cell isolation (Using SCID IBD cell Separation protocol). Approximately 4×10^5 cells/mL CD45RB^high cells are then injected intraperitoneally (100 μL/mouse) into female SCID animals. On study day 14, mice are weighed and randomized into treatment groups based on body weight. On Day 14, compounds are administered BID, via oral gavage, in a peanut oil vehicle at the dose levels outlined below in Tables 6a and 6b and a dose volume of 5 mL/kg. Treatment continues until study day 42, at which point the animals are necropsied 4 hours after the morning administration. The colon length and weight are recorded and used as a secondary endpoint in the study as a measurement of colon oedema. The colon is then divided into six cross-sections, four of which are used for histopathology scoring (primary endpoint) and two are homogenised for cytokine analysis. Data shown is the % inhibition of the induction window between nave animals and vehicle animals, where higher inhibition implies closer to the non-diseased, nave, phenotype.

COc1cc(Nc2cc(Oc3ccc(NC(=O)Nc4cc(C(C)(C)C)cc(NS(C)(=O)=O)c4OC)c4ccccc34)ccn2)cc(C(=O)NCCCN2CCOCC2)c1 [Example 66, 3-((4-((4-(3-(5-(tert-Butyl)-2-methoxy-3-(methylsulfonamido)phenyl)ureido)naphthalen-1-yl)oxy)pyridin-2-yl)amino)-5-methoxy-N-(3-morpholinopropyl)benzamide]
cytokine levels in anterior and posterior segments of the eyes [1]: significantly reduced cytokine levels

COc1cc(Nc2cc(Oc3ccc(NC(=O)Nc4cc(C(C)(C)C)cc(NS(C)(=O)=O)c4OC)c4ccccc34)ccn2)cc(C(=O)NCCN2CCN(C)CC2)c1 [Example 79, 3-((4-((4-(3-(5-(tert-Butyl)-2-methoxy-3-(methylsulfonamido)phenyl)ureido)naphthalen-1-yl)oxy)pyridin-2-yl)amino)-5-methoxy-N-(2-(4-methylpiperazin-1-yl)ethyl)benzamide]
activity in TNBS model of colonic inflammation (histopathology analysis) [2]: displayed substantial activity

COCCOCCOCCOc1cc(Nc2cc(Oc3ccc(NC(=O)Nc4cc(C(C)(C)C)cc(C(N)=O)c4OC)c4ccccc34)ccn2)cc(OC)c1 [Example 34, 5-(tert-Butyl)-2-methoxy-3-(3-(4-((2-((3-methoxy-5-(2-(2-(2-methoxyethoxy)ethoxy)ethoxy)phenyl)amino)pyridin-4-yl)oxy)naphthalen-1-yl)ureido)benzamide]
activity in TNBS model of colonic inflammation (histopathology analysis) [2]: displayed substantial activity

COCCOCCOCCNC(=O)c1cc(Nc2cc(Oc3ccc(NC(=O)Nc4cc(C(C)(C)C)cc(NS(C)(=O)=O)c4OC)c4ccccc34)ccn2)cc(OC)c1 [Example 3, 3-((4-((4-(3-(5-(tert-Butyl)-2-methoxy-3-(methylsulfonamido)phenyl)ureido)naphthalen-1-yl)oxy)pyridin-2-yl)amino)-5-methoxy-N-(2-(2-(2-methoxyethoxy)ethoxy)ethyl)benzamide]
effect on the binding of B-Raf to its standard ligand [3]: did not have any significant effect
effect on the binding of B-Raf (V600E) to its standard ligand [4]: did not have any significant effect
number of individual kinase hits S(1) ([5]; 50 nM): 0
number of individual kinase hits S(10) ([5]; 50 nM): 9
number of individual kinase hits S(35) ([5]; 50 nM): 36
number of individual kinase hits S(1) ([5]; 500 nM): 18
number of individual kinase hits S(10) ([5]; 500 nM): 59
number of individual kinase hits S(35) ([5]; 500 nM): 93
selectivity compared to the Reference Compound ([5]; evidenced by lower selectivity scores): substantially improved selectivities
activity in TNBS model of colonic inflammation (histopathology analysis) [2]: displayed substantial activity
activity in T cell driven model of colonic inflammation (ratios of colon weight to length) [6]: displayed significant activity

CNC(=O)c1cc(C(C)(C)C)cc(NC(=O)Nc2ccc(Oc3ccnc(Nc4cc(OC)cc(OCCOCCOCCOC)c4)c3)c3ccccc23)c1OC [Example 29, 5-(tert-Butyl)-2-methoxy-3-(3-(4-((2-((3-methoxy-5-(2-(2-(2-methoxyethoxy)ethoxy)-ethoxy)phenyl)amino)pyridin-4-yl)oxy)naphthalen-1-yl)ureido)-N-methylbenzamide]
cytokine levels in anterior and posterior segments of the eyes [1]: significantly reduced cytokine levels
